Data as given in patent US20150141381A1, “TETRACYCLINE COMPOUNDS HAVING TARGET THERAPEUTIC ACTIVITIES” (Paratek Pharmaceuticals, Inc., priority 2001, published 2015).
Like-named read-outs stand apart in the source and are kept apart here.

Legend:
S. aureus RN450 = test: In Vitro Anti-Bacterial Activity Assay (MIC), gram positive; type: cell-based; conditions: for MIC: Staphylococcus aureus, RN450, 18 h
E. coli mL308 225 = test: In Vitro Anti-Bacterial Activity Assay (MIC), gram negative; type: cell-based; conditions: for MIC: Escherichia coli, ML308225, 18 h
[1] = MIC class, Table 3, read-out: Antibiotic Activity Gram +
[2] = MIC class, Table 3, read-out: Antibiotic Activity Gram −
[3] = gram positive bacteria, read-out: Antibiotic Activity Gram + (MIC)
[4] = gram negative bacteria, read-out: Antibiotic Activity Gram − (MIC)
[5] = read-out: Antibiotic Activity Gram +
[6] = read-out: Antibiotic Activity Gram −
[7] = MIC class, Table 3 (Continued), read-out: Gram+ activity
[8] = MIC class, Table 3 (Continued), read-out: Gram− activity

Row | Structure (SMILES) | MIC (S. aureus RN450; [1]) [µg/mL] | MIC (E. coli mL308 225; [2]) [µg/mL] | MIC (S. aureus RN450; [3]) [µg/mL] | MIC (E. coli mL308 225; [4]) [µg/mL] | also measured
1 | C[C@H]1c2cccc(O)c2C(=O)C2=C(O)[C@]3(O)C(=O)C(C(N)=O)=C(O)[C@@H](N(C)C)[C@@H]3[C@@H](OC(=O)CCN3CCCC3)[C@@H]21 [R] | < 4 | < 4 |  |  | 
2 | CN1CCC(N(C)c2ccc3c(c2O)C(=O)C2=C(O)[C@]4(O)C(=O)C(C(N)=O)=C(O)[C@@H](N(C)C)[C@@H]4C[C@@H]2C3)CC1 |  |  | > 4 | > 4 | 
3 | COC(=O)C(=O)Nc1ccc(-c2ccc(O)c3c2C[C@H]2C[C@H]4[C@H](N(C)C)C(O)=C(C(N)=O)C(=O)[C@@]4(O)C(O)=C2C3=O)cc1 |  |  | < 4 | > 4 | 
4 | CCOc1ccc(-c2ccc(O)c3c2C[C@H]2C[C@H]4C(N(C)C)C(O)=C(C(N)=O)C(=O)[C@@]4(O)C(O)=C2C3=O)cc1CNC(=O)NC(C)(C)C (stereo partly shown) [HK] | < 4 | > 4 |  |  | 
5 | CN(C)[C@@H]1C(O)=C(C(N)=O)C(=O)[C@@]2(O)C(O)=C3C(=O)c4c(O)ccc(-c5ccc(-n6cccc6)nc5)c4C[C@H]3C[C@@H]12 |  |  | < 4 | < 4 | 
6 | CN(C)c1cc(CNC(=O)Oc2ccc(F)cc2)c(O)c2c1C[C@H]1C[C@H]3[C@H](N(C)C)C(O)=C(C(N)=O)C(=O)[C@@]3(O)C(O)=C1C2=O [FJ] |  |  |  |  | MIC (S. aureus RN450; [5]): < 4 µg/mL; MIC (E. coli mL308 225; [6]): > 4 µg/mL
7 | CN(C)c1cc(C#Cc2ccccc2)c(O)c2c1C[C@H]1C[C@H]3[C@H](N(C)C)C(O)=C(C(N)=O)C(=O)[C@@]3(O)C(O)=C1C2=O |  |  |  |  | MIC (S. aureus RN450; [7]): < 4 µg/mL; MIC (E. coli mL308 225; [8]): < 4 µg/mL
8 | CCOc1ccc(-c2ccc(O)c3c2C[C@H]2C[C@H]4C(N(C)C)C(O)=C(C(N)=O)C(=O)[C@@]4(O)C(O)=C2C3=O)cc1CNC(=O)C(F)(F)F (stereo partly shown) [HS] | < 4 | > 4 |  |  | 
9 | CN(C)c1cc(CNCC2CCOCC2)c(O)c2c1C[C@H]1C[C@H]3[C@H](N(C)C)C(O)=C(C(N)=O)C(=O)[C@@]3(O)C(O)=C1C2=O |  |  | < 4 | > 4 | 
10 | C[C@H]1c2ccc(CN3CCC4(CC3)OCCO4)c(O)c2C(=O)C2=C(O)[C@]3(O)C(=O)C(C(N)=O)=C(O)[C@@H](N(C)C)[C@@H]3[C@@H](O)[C@@H]21 |  |  | < 4 | < 4 | 
11 | CCCCOC1C(C(N)=O)=C(O)[C@@H](N(C)C)[C@@H]2[C@@H](O)[C@H]3C(=C(O)[C@]12O)C(=O)c1c(O)cccc1[C@@H]3C (stereo partly shown) |  |  | > 4 | > 4 | 
12 | CN(C)[C@@H]1C(O)=C(C(N)=O)C(=O)[C@@]2(O)C(O)=C3C(=O)c4c(O)ccc(/C=C/c5ccccc5)c4C[C@H]3C[C@@H]12 |  |  |  |  | MIC (S. aureus RN450; [7]): < 4 µg/mL; MIC (E. coli mL308 225; [8]): < 4 µg/mL
13 | CCCCC#Cc1cc(N(C)C)c2c(c1O)C(=O)C1=C(O)[C@]3(O)C(=O)C(C(N)=O)=C(O)[C@@H](N(C)C)[C@@H]3C[C@@H]1C2 |  |  | < 4 | < 4 | 
14 | CN(C)c1cc(C=O)c(O)c2c1C[C@H]1C[C@H]3[C@@H](N(C)C)C(O)=C(C(N)=O)C(=O)[C@@]3(O)C(O)=C1C2=O [NM] | < 4 | < 4 |  |  | 
15 | CN(C)[C@@H]1C(O)=C(C(N)=O)C(=O)[C@@]2(O)C(O)=C3C(=O)c4c(O)c(I)cc(CN)c4C[C@H]3C[C@@H]12 [FV] | > 4 | > 4 |  |  | 
16 | CCOP(=O)(OCC)C(Nc1ccc2c(c1O)C(=O)C1=C(O)[C@]3(O)C(=O)C(C(N)=O)=C(O)[C@@H](N(C)C)[C@@H]3[C@@H](O)[C@@H]1[C@H]2C)c1ccc(OC)cc1 (stereo partly shown) |  |  |  |  | MIC (S. aureus RN450; read-out: Gram+ activity): < 4 µg/mL; MIC (E. coli mL308 225; read-out: Gram− activity): > 4 µg/mL
17 | CN(C)c1cc(N2CCOCC2)c(O)c2c1C[C@H]1C[C@H]3[C@H](N(C)C)C(O)=C(C(N)=O)C(=O)[C@@]3(O)C(O)=C1C2=O |  |  | > 4 | > 4 | 
18 | CN(C)[C@@H]1C(O)=C(C(N)=O)C(=O)[C@@]2(O)C(O)=C3C(=O)c4c(O)ccc(CNCc5ccc[nH]5)c4C[C@H]3C[C@@H]12 [KH] | < 4 | < 4 |  |  | 
19 | CN(C)[C@H]1C(O)=C(C(N)=O)C(=O)[C@@]2(O)C(O)=C3C(=O)c4c(O)c(CNCC(C)(C)C)cc(-c5ccoc5)c4C[C@H]3C[C@@H]12 [NP] | < 4 | < 4 |  |  | 
20 | CN(C)c1cc(CNC(=O)Oc2ccc(Br)cc2)c(O)c2c1C[C@H]1C[C@H]3[C@H](N(C)C)C(O)=C(C(N)=O)C(=O)[C@@]3(O)C(O)=C1C2=O [FH] |  |  |  |  | MIC (S. aureus RN450; [5]): < 4 µg/mL; MIC (E. coli mL308 225; [6]): > 4 µg/mL
21 | CNCc1cc(N(C)C)c2c(c1O)C(=O)C1=C(O)[C@]3(O)C(=O)C(C(N)=O)=C(O)[C@@H](N(C)C)[C@@H]3C[C@@H]1C2 |  |  | < 4 | > 4 | 
22 | CCc1ccc(O)c2c1C[C@H]1C[C@H]3[C@H](N(C)C)C(O)=C(C(N)=O)C(=O)[C@@]3(O)C(O)=C1C2=O |  |  |  |  | MIC (S. aureus RN450; [7]): < 4 µg/mL; MIC (E. coli mL308 225; [8]): < 4 µg/mL

Row | Structure (SMILES) | MIC (S. aureus RN450; [1]) [µg/mL] | MIC (E. coli mL308 225; [2]) [µg/mL] | MIC (S. aureus RN450; [3]) [µg/mL] | MIC (E. coli mL308 225; [4]) [µg/mL] | also measured
23 | CN(C)[C@@H]1C(O)=C(C(N)=O)C(=O)[C@@]2(O)C(O)=C3C(=O)c4c(O)ccc(-c5ccc(CNCCc6ccc(Cl)cc6)cc5)c4C[C@H]3C[C@@H]12 |  |  | < 4 | < 4 | 
24 | CN(C)[C@@H]1C(O)=C(C(N)=O)C(=O)[C@@]2(O)C(O)=C3C(=O)c4c(ccc(N5CCCCC5)c4O)C[C@H]3C[C@@H]12 |  |  | > 4 | > 4 | 
25 | C[C@H]1c2c(CN)ccc(O)c2C(=O)C2=C(O)[C@]3(O)C(=O)C(C(N)=O)=C(O)[C@@H](N(C)C)[C@@H]3[C@@H](O)[C@@H]21 |  |  | > 4 | > 4 | 
26 | CN(C)c1cc(CNCC(C)(C)C)c(O)c2c1C[C@H]1C[C@H]3[C@H](N(C)C)C(O)=C(C(N)=O)C(=O)[C@@]3(O)C(O)=C1C2=O [FD] | < 4 | < 4 |  |  | 
27 | CN(C)c1cc2c(c3c1C[C@H]1C[C@H]4[C@H](N(C)C)C(O)=C(C(N)=O)C(=O)[C@@]4(O)C(O)=C1C3=O)OC(=O)N(CC(C)(C)C)C2 |  |  | > 4 | > 4 | 
28 | CN(C)c1ccc(NC(=O)NCc2cc(N(C)C)c3c(c2O)C(=O)C2=C(O)[C@]4(O)C(=O)C(C(N)=O)=C(O)[C@@H](N(C)C)[C@@H]4C[C@@H]2C3)cc1 [FN] | < 4 | > 4 |  |  | 
29 | CC(=O)Nc1ccc2c(c1O)C(=O)C1=C(O)[C@]3(O)C(=O)C(C(N)=O)=C(O)[C@@H](N(C)C)[C@@H]3C[C@@H]1C2 |  |  | < 4 | > 4 | 
30 | CN(C)c1cc(CN2CCC(C(F)(F)F)CC2)c(O)c2c1C[C@H]1C[C@H]3[C@H](N(C)C)C(O)=C(C(N)=O)C(=O)[C@@]3(O)C(O)=C1C2=O |  |  | < 4 | < 4 | 
31 | CN(C)c1ccc(-c2cc(I)c(O)c3c2C[C@H]2C[C@H]4[C@H](N(C)C)C(O)=C(C(N)=O)C(=O)[C@@]4(O)C(O)=C2C3=O)cc1 |  |  | < 4 | > 4 | 
32 | COc1ccc(CNCCF)cc1-c1ccc(O)c2c1C[C@H]1C[C@H]3[C@H](N(C)C)C(O)=C(C(N)=O)C(=O)[C@@]3(O)C(O)=C1C2=O |  |  | < 4 |  | MIC (E. coli mL308 225; read-out: Antibiotic Activity Gram − (MIC)): > 4 µg/mL
33 | CN(C)c1cc(CNC(=O)OCC(C)(C)C)c(O)c2c1C[C@H]1C[C@H]3[C@H](N(C)C)C(O)=C(C(N)=O)C(=O)[C@@]3(O)C(O)=C1C2=O [EN] | < 4 | > 4 |  |  | 
34 | CN(C)[C@@H]1C(O)=C(C(N)=O)C(=O)[C@@]2(O)C(O)=C3C(=O)c4c(ccc(CNCC(C)(C)C)c4O)C[C@H]3C[C@@H]12 [MZ] | < 4 | < 4 |  |  | 
35 | Cc1cc(C)cc(-c2cc(N(C)C)c3c(c2O)C(=O)C2=C(O)[C@]4(O)C(=O)C(C(N)=O)=C(O)[C@@H](N(C)C)[C@@H]4C[C@@H]2C3)c1 |  |  |  |  | MIC (S. aureus RN450; [7]): < 4 µg/mL; MIC (E. coli mL308 225; [8]): < 4 µg/mL
36 | COC(=O)c1cc(N)cc(-c2ccc(O)c3c2C[C@H]2C[C@H]4[C@H](N(C)C)C(O)=C(C(N)=O)C(=O)[C@@]4(O)C(O)=C2C3=O)c1 [HE] | < 4 | > 4 |  |  | 
37 | CN(C)C(=O)c1cccc(-c2ccc(O)c3c2C[C@H]2C[C@H]4[C@H](N(C)C)C(O)=C(C(N)=O)C(=O)[C@@]4(O)C(O)=C2C3=O)c1 [AD] | < 4 | > 4 |  |  | 
38 | Cc1csc(-c2ccc(O)c3c2C[C@H]2C[C@H]4[C@H](N(C)C)C(O)=C(C(N)=O)C(=O)[C@@]4(O)C(O)=C2C3=O)c1 |  |  |  |  | MIC (S. aureus RN450; [7]): < 4 µg/mL; MIC (E. coli mL308 225; [8]): < 4 µg/mL
39 | CC(C)CNCc1cc(N(C)C)c2c(c1O)C(=O)C1=C(O)[C@]3(O)C(=O)C(C(N)=O)=C(O)[C@@H](N(C)C)[C@@H]3C[C@@H]1C2 [drawing 3497] |  |  |  |  | Antibiotic Activity Gram + (MIC) (S. aureus RN450; gram positive bacteria): ** (compounds with MIC less than or equal to 4 μg/ml are indicated with **); Antibiotic Activity Gram − (MIC) (E. coli mL308 225; gram negative bacteria): * (compounds with an MIC of greater than 4 μg/ml are indicated with *)
40 | CC(O)CCc1ccc(O)c2c1C[C@H]1C[C@H]3[C@H](N(C)C)C(O)=C(C(N)=O)C(=O)[C@@]3(O)C(O)=C1C2=O (stereo partly shown) [CR] | < 4 | > 4 |  |  | 
41 | CN(C)[C@@H]1C(OCc2ccccc2)=C(C(N)=O)C(=O)[C@@]2(O)C(O)=C3C(=O)c4c(O)ccc(I)c4C[C@H]3C[C@@H]12 |  |  | < 4 | < 4 | 
42 | Cc1ccc(S(=O)(=O)NCC#Cc2cc(N(C)C)c3c(c2O)C(=O)C2=C(O)[C@]4(O)C(=O)C(C(N)=O)=C(O)C(N(C)C)[C@@H]4C[C@@H]2C3)cc1 (stereo partly shown) [CZ] | > 4 | > 4 |  |  | 
43 | CN(C)c1cc(-c2ccc(CN3CCN(c4ccccc4F)CC3)o2)c(O)c2c1C[C@H]1C[C@H]3[C@H](N(C)C)C(O)=C(C(N)=O)C(=O)[C@@]3(O)C(O)=C1C2=O |  |  | > 4 | > 4 | 
44 | CN(C)CC#Cc1cc(C(C)(C)C)c(O)c2c1C[C@H]1C[C@H]3[C@H](N(C)C)C(O)=C(C(N)=O)C(=O)[C@@]3(O)C(O)=C1C2=O [GD] | < 4 | > 4 |  |  | 
